# Experimental data: PMC3859622, “Functional Characterization of ECP-Heparin Interaction: A Novel Molecular Model” (PLoS ONE, 2013)
# Values joined by “and” are separate entries in the source; they are usually repeats but may differ in a detail not shown here. Equal entries are not always repeated. Where two headings read alike, the source gives them in different places.
# T1: ECP Q40A/H64A (Homo sapiens, UniProt P12724, H91A/Q67A)
# T1 sequence (P12724 28-160 Q67A/H91A): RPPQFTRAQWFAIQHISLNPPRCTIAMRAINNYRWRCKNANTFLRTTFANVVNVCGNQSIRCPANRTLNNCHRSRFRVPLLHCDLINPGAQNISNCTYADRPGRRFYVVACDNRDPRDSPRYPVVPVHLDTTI
# T2: wtECP (Homo sapiens, UniProt P12724)
# T2 construct: His6 (C); made in house; host or cells: Escherichia coli BL21 (DE3) CodonPlus
# T2 sequence (P12724 28-160): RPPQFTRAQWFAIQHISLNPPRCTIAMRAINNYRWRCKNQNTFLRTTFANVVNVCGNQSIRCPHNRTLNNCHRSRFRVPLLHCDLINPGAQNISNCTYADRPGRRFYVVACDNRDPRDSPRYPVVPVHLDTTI
# T3: ECP H64A (Homo sapiens, UniProt P12724, H91A)
# T3 sequence (P12724 28-160 H91A): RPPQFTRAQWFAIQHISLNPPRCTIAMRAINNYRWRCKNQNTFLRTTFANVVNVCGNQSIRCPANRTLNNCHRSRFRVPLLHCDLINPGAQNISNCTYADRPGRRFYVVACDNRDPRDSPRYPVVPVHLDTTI
# T4: ECP Q40A (Homo sapiens, UniProt P12724, Q67A)
# T4 sequence (P12724 28-160 Q67A): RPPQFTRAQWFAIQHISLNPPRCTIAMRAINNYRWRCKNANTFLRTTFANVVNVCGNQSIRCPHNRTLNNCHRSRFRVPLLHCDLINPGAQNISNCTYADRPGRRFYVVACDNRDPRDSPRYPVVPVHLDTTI
# T5: ECP R105A (Homo sapiens, UniProt P12724, R132A)
# T5 sequence (P12724 28-160 R132A): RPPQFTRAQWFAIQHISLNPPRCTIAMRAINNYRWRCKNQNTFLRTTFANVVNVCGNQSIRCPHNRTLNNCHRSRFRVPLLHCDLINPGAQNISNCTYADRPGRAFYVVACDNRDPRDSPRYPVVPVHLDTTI
# B1: Bovine RNase A: bovine pancreatic RNaseA (USB), positive control (protein, UniProt P61823 27-150, looked up)
# Ribonuclease pancreatic: KETAAAKFERQHMDSSTSAASSSNYCNQMMKSRNLTKDRCKPVNTFVHESLADVQAVCSQKNVACKNGQTNCYQSYSTMSITDCRETGSSKYPNCAYKTTQANKHIIVACEGNPYVPVHFDASV
# B2: wtECP: recombinant wild type human eosinophil cationic protein with C-terminal His6 tag, refolded from E. coli (protein, UniProt P12724 28-160, looked up)
# Eosinophil cationic protein: RPPQFTRAQWFAIQHISLNPPRCTIAMRAINNYRWRCKNQNTFLRTTFANVVNVCGNQSIRCPHNRTLNNCHRSRFRVPLLHCDLINPGAQNISNCTYADRPGRRFYVVACDNRDPRDSPRYPVVPVHLDTTI
# modifications: C-terminal His6 tag
# B3: Q40A: single mutant recombinant ECP, Gln40 to Ala (protein, UniProt P12724 28-160, looked up, variant Q40A)
# Eosinophil cationic protein: RPPQFTRAQWFAIQHISLNPPRCTIAMRAINNYRWRCKNANTFLRTTFANVVNVCGNQSIRCPHNRTLNNCHRSRFRVPLLHCDLINPGAQNISNCTYADRPGRRFYVVACDNRDPRDSPRYPVVPVHLDTTI
# B4: Q40A/H64A: double mutant recombinant ECP, Gln40 and His64 to Ala (protein, UniProt P12724 28-160, looked up, variant Q40A H64A)
# Eosinophil cationic protein: RPPQFTRAQWFAIQHISLNPPRCTIAMRAINNYRWRCKNANTFLRTTFANVVNVCGNQSIRCPANRTLNNCHRSRFRVPLLHCDLINPGAQNISNCTYADRPGRRFYVVACDNRDPRDSPRYPVVPVHLDTTI
# B5: R105A: single mutant recombinant ECP, Arg105 to Ala (protein, UniProt P12724 28-160, looked up, variant R105A)
# Eosinophil cationic protein: RPPQFTRAQWFAIQHISLNPPRCTIAMRAINNYRWRCKNQNTFLRTTFANVVNVCGNQSIRCPHNRTLNNCHRSRFRVPLLHCDLINPGAQNISNCTYADRPGRAFYVVACDNRDPRDSPRYPVVPVHLDTTI
# B6: H64A: single mutant recombinant ECP, His64 to Ala (protein, UniProt P12724 28-160, looked up, variant H64A)
# Eosinophil cationic protein: RPPQFTRAQWFAIQHISLNPPRCTIAMRAINNYRWRCKNQNTFLRTTFANVVNVCGNQSIRCPANRTLNNCHRSRFRVPLLHCDLINPGAQNISNCTYADRPGRRFYVVACDNRDPRDSPRYPVVPVHLDTTI
# Columns and labels:
# ECP Q40A/H64A = target: T1, ECP Q40A/H64A; assay: ITC of heparins with ECP Q40A/H64A; format: binding; settings: ITC 25 °C, PBS pH 7.4
# Procedure: (§1) Thermodynamic analysis of wtECP and mutant ECPs to bind heparin was performed using a MicroCal iTC200 calorimeter (MicroCal, Northampton, USA) [38]. ECP was dialyzed against PBS before use and the same buffer was used to prepare heparin solutions. All experiments were performed at 25 °C, using ECP (20 μM, as protein) and heparin (200 μM). The protein solution was placed in a calorimeter cell and the heparin solution was loaded into the syringe injector. In individual titration, auto-controlled microsyringe injected 2 μL heparin solution into the protein solution with an interval of 120 sec. The integrated heat change was analyzed by means of non-linear regression using the MicroCal Origin software, and enthalpy change (ΔH), dissociation constant (K D), and stoichiometry value (N = X/M) were obtained from a single sigmoidal titration curve [39]. […] The effect of dilution of the heparin solution in the titration cell was removed by subtracting calorimetric data for a blank titration, which consisted of titration of heparin solution into PBS.
# wtECP = target: T2, wtECP; assay: ITC of heparins with wtECP; format: binding; settings: ITC 25 °C, PBS pH 7.4
# Procedure: as §1
# EDN L130A = system: EDN L130A; parameters: method as in earlier work; settings: calculated, Hep6 docked to EDN L130A; cited from earlier work
# EDN R36A = system: EDN R36A; parameters: method as in earlier work; settings: calculated, Hep6 docked to EDN R36A; cited from earlier work
# EDN K38A = system: EDN K38A; parameters: method as in earlier work; settings: calculated, Hep6 docked to EDN K38A; cited from earlier work
# EDN Q34A = system: EDN Q34A; parameters: method as in earlier work; settings: calculated, Hep6 docked to EDN Q34A; cited from earlier work
# EDN W10A = system: EDN W10A; parameters: method as in earlier work; settings: calculated, Hep6 docked to EDN W10A; cited from earlier work
# EDN H129A = system: EDN H129A; parameters: method as in earlier work; settings: calculated, Hep6 docked to EDN H129A; cited from earlier work
# EDN Q14A = system: EDN Q14A; parameters: method as in earlier work; settings: calculated, Hep6 docked to EDN Q14A; cited from earlier work
# EDN Q40A = system: EDN Q40A; parameters: method as in earlier work; settings: calculated, Hep6 docked to EDN Q40A; cited from earlier work
# EDN N39A = system: EDN N39A; parameters: method as in earlier work; settings: calculated, Hep6 docked to EDN N39A; cited from earlier work
# ECP H64A = target: T3, ECP H64A; assay: ITC of heparins with ECP H64A; format: binding; settings: ITC 25 °C, PBS pH 7.4
# Procedure: as §1
# ECP Q40A = target: T4, ECP Q40A; assay: ITC of heparins with ECP Q40A; format: binding; settings: ITC 25 °C, PBS pH 7.4
# Procedure: as §1
# EDN R132A = system: EDN R132A; parameters: method as in earlier work; settings: calculated, Hep6 docked to EDN R132A; cited from earlier work
# ECP R105A = target: T5, ECP R105A; assay: ITC of heparins with ECP R105A; format: binding; settings: ITC 25 °C, PBS pH 7.4
# Procedure: as §1
# EDN W7A = system: EDN W7A; parameters: method as in earlier work; settings: calculated, Hep6 docked to EDN W7A; cited from earlier work
# EDN = settings: calculated, cited from earlier work
# EDN H15A = system: EDN H15A; parameters: method as in earlier work; settings: calculated, Hep6 docked to EDN H15A; cited from earlier work
# yeast tRNA [1] = assay: Ribonuclease activity, yeast tRNA digestion; format: biochemical; settings: yeast tRNA cleavage, 37 °C, 15 min, pH 7.4
# Procedure: Ribonuclease activities of recombinant wtECP and mutant ECPs were measured using yeast tRNA (Invitrogen, USA) digestion method, using bovine pancreatic RNaseA (USB, USA) as positive control. Three hundred microliters of 100 mM sodium phosphate buffer, pH 7.4, and 500 μl diethylpyrocarbonate-ddH2O were mixed with 50 μl 0.05 μM RNaseA and 5 μM wtECP or each mutant ECP separately. Ten microliters of 5 mg/ml yeast tRNA was added and incubated at 37 °C for 0, 5, 10 and 15 min. Ice-cold 500 μl stop solution (1:1, v/v, 40 mM lanthanum nitrate and 6% perchloric acid) was added and shaken for 10 min to stop reaction. Intact yeast tRNA was […] by centrifugation at 16,100 × g at 25 °C for 5 min. One hundred microliters of supernatant in each tube was placed on to a 96-well plate. The amount of soluble tRNA in supernatant was determined by A260 nm. The calculation has been described previously.
# yeast tRNA [2] = system: yeast tRNA; parameters: method as in PMID 9649619; settings: cited from earlier work
# [3] = parameters: method as in PMID 9357326; settings: relative to EDN; cited from earlier work
molecule,measurement,setting,value
"O=C(O)[C@@H]1O[C@@H](O[C@H]2[C@H](O)[C@@H](NS(=O)(=O)O)[C@@H](O[C@H]3[C@H](O)[C@@H](OS(=O)(=O)O)C(O)O[C@H]3C(=O)O)O[C@@H]2COS(=O)(=O)O)[C@H](OS(=O)(=O)O)[C@@H](O)[C@@H]1O[C@H]1O[C@H](COS(=O)(=O)O)[C@@H](O[C@@H]2O[C@@H](C(=O)O)[C@@H](O[C@H]3O[C@H](COS(=O)(=O)O)[C@@H](O)[C@H](O)[C@H]3NS(=O)(=O)O)[C@H](O)[C@H]2OS(=O)(=O)O)[C@H](O)[C@H]1NS(=O)(=O)O (stereo partly drawn) [Hep6, [GlcNS(6S)-IdoA(2S)]3]",N (sites),ECP Q40A/H64A,2.45 ± 0.1 sites
same,TΔS,ECP Q40A/H64A,3.7 ± 0.1 kcal/mol
same,ΔG,ECP Q40A/H64A,-7.5 kcal/mol and -7.5 ± 0.1 kcal/mol
same,ΔH,ECP Q40A/H64A,-3.9 ± 0.2 kcal/mol
same,N (sites),wtECP,1.77 ± 0.1 sites
same,TΔS,wtECP,4.8 ± 0.1 kcal/mol
same,ΔG,wtECP,-7.8 kcal/mol and -7.8 ± 0.1 kcal/mol
same,Binding energy,EDN L130A,-9.19 kcal/mol
same,Binding energy,EDN R36A,-8.71 kcal/mol
same,Binding energy,EDN K38A,-8.66 kcal/mol
same,Binding energy,EDN Q34A,-8.88 kcal/mol
same,Binding energy,EDN W10A,-8.88 kcal/mol
same,Binding energy,EDN H129A,-9.05 kcal/mol
same,Binding energy,EDN Q14A,-8.81 kcal/mol
same,Binding energy,EDN Q40A,-8.50 kcal/mol
same,Binding energy,EDN N39A,-8.98 kcal/mol
same,N (sites),ECP H64A,2.74 ± 0.3 sites
same,TΔS,ECP H64A,2 ± 0.3 kcal/mol
same,ΔG,ECP H64A,-7.7 kcal/mol and -7.7 ± 0.4 kcal/mol
same,ΔH,ECP H64A,-5.8 ± 0.4 kcal/mol
same,N (sites),ECP Q40A,1.7 ± 0.1 sites
same,TΔS,ECP Q40A,3.2 ± 0.2 kcal/mol
same,ΔG,ECP Q40A,-7.6 kcal/mol and -7.6 ± 0.2 kcal/mol
same,ΔH,ECP Q40A,-4.4 ± 0.3 kcal/mol
same,Binding energy,EDN R132A,-8.81 kcal/mol
same,N (sites),ECP R105A,2.81 ± 0.1 sites
same,TΔS,ECP R105A,3.3 ± 0.1 kcal/mol
same,ΔG,ECP R105A,-7.9 kcal/mol and -7.9 ± 0.2 kcal/mol
same,ΔH,ECP R105A,-4.4 ± 0.2 kcal/mol
same,Binding energy,EDN W7A,-8.93 kcal/mol
same,Binding energy,"EDN; Hep6 docked to wild type EDN, previous docking simulation data",-9.27 kcal/mol
same,Contribution,EDN; contribution of EDN H15 to Hep6 binding energy,-0.34 kcal/mol
same,Contribution,EDN; contribution of EDN K38 to Hep6 binding energy,-0.61 kcal/mol
same,Contribution,EDN; contribution of EDN L130 to Hep6 binding energy,-0.08 kcal/mol
same,Contribution,EDN; contribution of EDN N39 to Hep6 binding energy,-0.29 kcal/mol
same,Contribution,EDN; contribution of EDN Q14 to Hep6 binding energy,-0.46 kcal/mol
same,Contribution,EDN; contribution of EDN Q34 to Hep6 binding energy,-0.39 kcal/mol
same,Contribution,EDN; contribution of EDN Q40 to Hep6 binding energy,-0.77 kcal/mol
same,Contribution,EDN; contribution of EDN R36 to Hep6 binding energy,-0.56 kcal/mol
same,Contribution,EDN; contribution of EDN R132 to Hep6 binding energy,-0.46 kcal/mol
same,Contribution,EDN; contribution of EDN W7 to Hep6 binding energy,-0.34 kcal/mol
same,Contribution,EDN; contribution of EDN W10 to Hep6 binding energy,-0.39 kcal/mol
same,Contribution,EDN; contribution of EDN residue printed H120 (row H129A) to Hep6 binding energy,-0.22 kcal/mol
same,Binding energy,EDN H15A,-8.93 kcal/mol
B1,RNase activity,yeast tRNA [1],1.1710 ± 0.0131 soluble tRNA/pmol
same,RNase activity,yeast tRNA [1]; listed as bovine RNaseA,1.171 soluble tRNA/pmol
same,"RNase activity, reported number",yeast tRNA [2],1.208 soluble tRNA/pmol
B2,Ribonucleolytic activity of EDN,[3],1%
same,RNase activity,yeast tRNA [1],0.0049 soluble tRNA/pmol and 0.0049 ± 0.0001 soluble tRNA/pmol
B3,RNase activity,yeast tRNA [1],0.0043 soluble tRNA/pmol and 0.0043 ± 0.0001 soluble tRNA/pmol
B4,RNase activity,yeast tRNA [1],0.0056 soluble tRNA/pmol and 0.0056 ± 0.0002 soluble tRNA/pmol
B5,RNase activity,yeast tRNA [1],0.0032 soluble tRNA/pmol and 0.0032 ± 0.0002 soluble tRNA/pmol
B6,RNase activity,yeast tRNA [1],0.0068 soluble tRNA/pmol and 0.0068 ± 0.0001 soluble tRNA/pmol
